Measurements reported in US11000033B2, “Ketone or oxime compound, and herbicide” (NISSAN CHEMICAL CORPORATION, priority 2014, dated 2021).

What was measured:
Type in all cases: in vivo
[1] = system: Scirpus juncoides; assay: Test Example 2: herbicidal activity, application during weed generation in submerged conditions (symbol B); settings: Table 23; application herbicide amount 320 g/ha; grade 0-5 by criteria of Test Example 1
Summary of the method: (§1)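 Alluvial soil in pots was flooded to a 4 cm water depth and sown with a mix of the three weed species, then grown in a greenhouse at 25° C. to 30° C. At the one- to two-leaf stage, an emulsifiable formulation diluted in water to a set dose was applied to the water surface. Effects were scored visually 3 weeks later.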

[2] = system: Stellaria media; assay: Test Example 4: herbicidal effect by soil treatment (symbol P); settings: application herbicide amount 320 g/ha
Summary of the method: (§2)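 Seeds were sown in sterilized diluvial soil, covered with about 1.5 cm of soil, and the soil surface was sprayed with a water-diluted emulsion of the compound at a predetermined rate. Plants grew in a greenhouse at 25° C. to 30° C.; effects were scored visually 3 weeks after application.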

[3] = system: soybean; assay: Test Example 4: effect on crop by soil treatment (symbol d); settings: application herbicide amount 320 g/ha
Summary of the method: (§3)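 Seeds were sown in spots on sterilized diluvial soil in a plastic box and covered with about 1.5 cm of soil. Plants were then grown in a greenhouse at 25° C. to 30° C.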

[4] = system: wheat; assay: Test Example 4: effect on crop by soil treatment (symbol e); settings: application herbicide amount 320 g/ha
Summary of the method: as §3

[5] = system: Echinochloa oryzacola Vasing.; assay: Test Example 2: herbicidal activity, application during weed generation in submerged conditions (symbol A); settings: Table 23; application herbicide amount 320 g/ha; grade 0-5 by criteria of Test Example 1
Summary of the method: as §1

[6] = system: rice plant; assay: Test Example 5: effect on crop by foliage application, plastic box (symbol b); settings: 320 g/ha, 3 weeks after application
Summary of the method: (§4)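 Seeds were sown in spots in sterilized diluvial soil held in a plastic box 21 cm × 13 cm × 7 cm deep, covered with about 1.5 cm of soil, and grown in a greenhouse at 25° C. to 30° C.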

[7] = system: Monochoria vaginalis; assay: Test Example 1: herbicidal activity, application before weed generation in submerged conditions (symbol C); settings: application herbicide amount 320 g/ha
Summary of the method: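 Ratings (5: ≥90%, near complete withering; 4: 70–<90%; 3: 40–<70%; 2: 20–<40%; 1: 5–<20%; 0: ≤5%) were assigned 3 weeks after the diluted emulsion was applied to the water surface of freshly sown, submerged pots.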

[8] = system: transplanted rice plant; assay: Test Example 1: effect on crop, application before weed generation in submerged conditions (symbol a); settings: application herbicide amount 320 g/ha
Summary of the method: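 Alluvial soil pots flooded to 4 cm water, sown with Echinochloa oryzacola, Scirpus juncoides and Monochoria vaginalis, then transplanted with 2.5 leaf stage rice seedlings; pre-emergence application. Greenhouse 25° C. to 30° C.; scored 0–5 by herbicidal ratio 3 weeks after application.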

[9] = system: Cyperus difformis; assay: Test Example 3: herbicidal effect by foliage application, Wagner pot (symbol E); settings: application herbicide amount 320 g/ha
Summary of the method: (§5)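 Weeds and rice were sown in alluvial soil under 0.1–0.5 cm of standing water and grown for 14 days in a 25–30 °C greenhouse. An emulsion of the compound, diluted in water to a set dose, was sprayed evenly onto the foliage. Effect was scored against fixed criteria 3 weeks after treatment.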

[10] = system: Echinochloa crus-galli var. crus-galli; assay: Test Example 3: herbicidal effect by foliage application, Wagner pot (symbol H); settings: application herbicide amount 320 g/ha
Summary of the method: as §5

[11] = system: soybean; assay: Test Example 5: effect on crop by foliage application, plastic box (symbol d); settings: 320 g/ha, 3 weeks after application
Summary of the method: as §4

[12] = system: beet; assay: Test Example 5: effect on crop by foliage application, plastic box (symbol f); settings: 320 g/ha, 3 weeks after application
Summary of the method: as §4

[13] = system: Leptochloa chinensis; assay: Test Example 3: herbicidal effect by foliage application, Wagner pot (symbol D); settings: application herbicide amount 320 g/ha
Summary of the method: as §5

[14] = system: Abutilon theophrasti; assay: Test Example 4: herbicidal effect by soil treatment (symbol M); settings: application herbicide amount 320 g/ha
Summary of the method: as §2

[15] = system: corn; assay: Test Example 5: effect on crop by foliage application, plastic box (symbol c); settings: 320 g/ha, 3 weeks after application
Summary of the method: as §4

[16] = system: corn; assay: Test Example 4: effect on crop by soil treatment (symbol c); settings: application herbicide amount 320 g/ha
Summary of the method: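 The test used sterilized diluvial soil. Seed was set down in spots and overlaid with about 1.5 cm of soil before growth in a greenhouse kept at 25° C. to 30° C.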

Row | Compound | Herbicidal effect grade, B: Scirpus juncoides [1] | P: Stellaria media, herbicidal effect grade [2] | d: soybean, effect on crop grade [3] | e: wheat, effect on crop grade [4] | Herbicidal effect grade, A: Echinochloa oryzacola Vasing. [5] | b: directly sowed rice plant, effect on crop (criteria of Test Example 1) [6] | Herbicidal effect grade, C: Monochoria vaginalis [7] | Effect grade on crop, a: transplanted rice plant [8] | herbicidal effect on E, grade 0-5 [9] | herbicidal effect on H (Echinochloa crus-galli var. crus-galli), grade 0-5 [10] | d: soybean, effect on crop (criteria of Test Example 1) [11] | f: beet, effect on crop (criteria of Test Example 1) [12] | herbicidal effect on D (Leptochloa chinensis), grade 0-5 [13] | M: Abutilon theophrasti, herbicidal effect grade [14] | c: corn, effect on crop (criteria of Test Example 1) [15] | c: corn, effect on crop grade [16] | Herbicidal effect grade, P: Stellaria media [2] | Effect on crop grade, d: soybean [3] | Effect on crop grade, e: wheat [4] | Herbicidal effect grade, M: Abutilon theophrasti [14] | also measured
1 | CON=C(C)CC1CC(O)=C(c2c(C)cc(-c3ncccn3)cc2C)C1=O (mixture of isomers) [6-057] | 2 (Herbicidal ratio of 20% or higher and lower than 40%) | 0 (Herbicidal ratio of 5% or lower (almost no effect)) | 0 (Herbicidal ratio of 5% or lower (almost no effect)) | 1 (Herbicidal ratio of 5% or higher and lower than 20%) | 3 (Herbicidal ratio of 40% or higher and lower than 70%) | 5 (Herbicidal ratio of 90% or more (almost completely withered)) | 1 (Herbicidal ratio of 5% or higher and lower than 20%) | 5 (Herbicidal ratio of 90% or more (almost completely withered)) | 5 (Herbicidal ratio of 90% or more (almost completely withered)) | 5 (Herbicidal ratio of 90% or more (almost completely withered)) | 3 (Herbicidal ratio of 40% or higher and lower than 70%) | 0 (Herbicidal ratio of 5% or lower (almost no effect)) | 5 (Herbicidal ratio of 90% or more (almost completely withered)) | 0 (Herbicidal ratio of 5% or lower (almost no effect)) | 5 (Herbicidal ratio of 90% or more (almost completely withered)) | 1 (Herbicidal ratio of 5% or higher and lower than 20%) | – | – | – | – | –
2 | CC(=O)C1CC(O)=C(c2c(C)cc(C)cc2C)C1=O (stereo not shown) [8-001] | 0 (Herbicidal ratio of 5% or lower (almost no effect)) | – | – | – | 0 (Herbicidal ratio of 5% or lower (almost no effect)) | – | 0 (Herbicidal ratio of 5% or lower (almost no effect)) | 0 (Herbicidal ratio of 5% or lower (almost no effect)) | – | – | – | – | – | – | – | – | 0 (Herbicidal ratio of 5% or lower (almost no effect)) | 0 (Herbicidal ratio of 5% or lower (almost no effect)) | 0 (Herbicidal ratio of 5% or lower (almost no effect)) | 0 (Herbicidal ratio of 5% or lower (almost no effect)) | b: directly sowed rice plant, effect on crop grade [6]: 2 (Herbicidal ratio of 20% or higher and lower than 40%); E herbicidal effect grade ([9]; Table 24): 0 (Herbicidal ratio of 5% or lower (almost no effect)); H (Echinochloa crus-galli var. crus-galli) herbicidal effect grade ([10]; Table 24): 0 (Herbicidal ratio of 5% or lower (almost no effect)); d: soybean, effect on crop grade [11]: 0 (Herbicidal ratio of 5% or lower (almost no effect)); f: beet, effect on crop grade [12]: 0 (Herbicidal ratio of 5% or lower (almost no effect)); D (Leptochloa chinensis) herbicidal effect grade ([13]; Table 24): 0 (Herbicidal ratio of 5% or lower (almost no effect)); c: corn, effect on crop grade [15]: 0 (Herbicidal ratio of 5% or lower (almost no effect)); Effect on crop grade, c: corn [16]: 0 (Herbicidal ratio of 5% or lower (almost no effect))
3 | CON=C(C)CC1CC(O)=C(c2c(C)cc(-c3ccc(Cl)cc3)cc2OC)C1=O (stereo not shown) [6-077, 2-(4′-chloro-3-methoxy-5-methyl-[1,1′-biphenyl]-4-yl)-3-hydroxy-5-{2-(methoxyimino)propyl}cyclopent-2-enone] | 4 (Herbicidal ratio of 70% or higher and lower than 90%) | 3 (Herbicidal ratio of 40% or higher and lower than 70%) | 0 (Herbicidal ratio of 5% or lower (almost no effect)) | 0 (Herbicidal ratio of 5% or lower (almost no effect)) | 5 (Herbicidal ratio of 90% or more (almost completely withered)) | 5 (Herbicidal ratio of 90% or more (almost completely withered)) | 3 (Herbicidal ratio of 40% or higher and lower than 70%) | 5 (Herbicidal ratio of 90% or more (almost completely withered)) | 5 (Herbicidal ratio of 90% or more (almost completely withered)) | 5 (Herbicidal ratio of 90% or more (almost completely withered)) | 2 (Herbicidal ratio of 20% or higher and lower than 40%) | 4 (Herbicidal ratio of 70% or higher and lower than 90%) | 5 (Herbicidal ratio of 90% or more (almost completely withered)) | 5 (Herbicidal ratio of 90% or more (almost completely withered)) | 5 (Herbicidal ratio of 90% or more (almost completely withered)) | 0 (Herbicidal ratio of 5% or lower (almost no effect)) | – | – | – | – | –
4 | CC(=O)CC1CC(O)=C(c2c(C)cc(-n3cccn3)cc2C)C1=O (stereo not shown) [7-024] | 0 (Herbicidal ratio of 5% or lower (almost no effect)) | – | – | – | 1 (Herbicidal ratio of 5% or higher and lower than 20%) | 3 (Herbicidal ratio of 40% or higher and lower than 70%) | 2 (Herbicidal ratio of 20% or higher and lower than 40%) | 2 (Herbicidal ratio of 20% or higher and lower than 40%) | 2 (Herbicidal ratio of 20% or higher and lower than 40%) | 5 (Herbicidal ratio of 90% or more (almost completely withered)) | 0 (Herbicidal ratio of 5% or lower (almost no effect)) | 0 (Herbicidal ratio of 5% or lower (almost no effect)) | 5 (Herbicidal ratio of 90% or more (almost completely withered)) | – | 1 (Herbicidal ratio of 5% or higher and lower than 20%) | – | 0 (Herbicidal ratio of 5% or lower (almost no effect)) | 0 (Herbicidal ratio of 5% or lower (almost no effect)) | 0 (Herbicidal ratio of 5% or lower (almost no effect)) | 0 (Herbicidal ratio of 5% or lower (almost no effect)) | Effect on crop grade, c: corn [16]: 0 (Herbicidal ratio of 5% or lower (almost no effect))
